Several values for one entry are separate records, joined by “and”; a condition that tells them apart may be missing. Equal values may be shown once.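 Five compound concentrations were applied to cells in 96-well plates for 48 hours; endpoints were derived by simple linear interpolation of the resulting dose-response curve. GI50 marks 50% less growth.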 Activity calls are given as the source filed them. Cut-off read from the data, not from the text of the source: active = GI50 up to about 1.1 µM and inactive = higher.
How the values were obtained:
Test in all cases: NCI tumour cell line growth inhibition, 48 h
[1] = system: A498
[2] = system: A549
[3] = system: ACHN
[4] = system: BT-549
[5] = system: CAKI-1
[6] = system: DU-145
[7] = system: EKVX
[8] = system: HCT-15
[9] = system: HL-60
[10] = system: HOP-62
[11] = system: HOP-92
[12] = system: Hs-578T
[13] = system: IGROV-1
[14] = system: M14
[15] = system: MCF7
[16] = system: MDA-MB-435
[17] = system: MDA-N
[18] = system: NCI-H226
[19] = system: NCI-H23
[20] = system: NCI-H460
[21] = system: NCI/ADR-RES
[22] = system: OVCAR-4
[23] = system: OVCAR-5
[24] = system: OVCAR-8
[25] = system: SF-268
[26] = system: SF-295
[27] = system: SF-539
[28] = system: SK-MEL-28
[29] = system: SK-MEL-2
[30] = system: SK-MEL-5
[31] = system: SK-OV-3
[32] = system: SN12C
[33] = system: SNB-19
[34] = system: SW-620
[35] = system: T47D
[36] = system: TK-10
[37] = system: UACC-257
[38] = system: UACC-62
[39] = system: UO-31
[40] = system: 786-0
[41] = system: CCRF-CEM
[42] = system: COLO 205
[43] = system: HCC 2998
[44] = system: HCT-116
[45] = system: HT-29
[46] = system: K562
[47] = system: KM12
[48] = system: LOX IMVI
[49] = system: MDA-MB-231
[50] = system: MOLT-4
[51] = system: PC-3
[52] = system: RPMI-8226
[53] = system: RXF 393
[54] = system: SNB-75
[55] = system: SR
[56] = system: U-251
[57] = system: Malme-3M
[58] = system: NCI-H522

COc1ccc(/C=C/C(=O)OC2CC34CCNC35CC(OC5(OC)C2OC)c2ccc(OC)c(O)c24)cc1O (centres undefined)
GI50 [1]: > 100 µM (inactive) | GI50 [2]: > 100 µM (inactive) | GI50 [3]: > 100 µM (inactive) and 80.7 µM (inactive) | GI50 [4]: > 100 µM (inactive) | GI50 [5]: > 100 µM (inactive) | GI50 [6]: > 100 µM (inactive) | GI50 [7]: > 100 µM (inactive) | GI50 [8]: 58.5 µM | GI50 [9]: 24.1 µM (inactive) | GI50 [10]: > 100 µM (inactive) and 61.4 µM (inactive) | GI50 [11]: 76 µM (inactive) | GI50 [12]: > 100 µM (inactive) and 52.2 µM (inactive) | GI50 [13]: > 100 µM (inactive) and 86.3 µM (inactive) | GI50 [14]: > 100 µM (inactive) and 88.7 µM (inactive) | GI50 [15]: > 100 µM (inactive) and 70 µM (inactive) | GI50 [16]: > 100 µM (inactive) | GI50 [17]: > 100 µM (inactive) | GI50 [18]: > 100 µM (inactive) | GI50 [19]: > 100 µM (inactive) and 88.1 µM (inactive) | GI50 [20]: > 100 µM (inactive) and 57.7 µM (inactive) | GI50 [21]: 63 µM (inactive) | GI50 [22]: > 100 µM (inactive) and 50.6 µM (inactive) | GI50 [23]: > 100 µM (inactive) | GI50 [24]: > 100 µM (inactive) | GI50 [25]: > 100 µM (inactive) | GI50 [26]: > 100 µM (inactive) and 62.4 µM (inactive) | GI50 [27]: > 100 µM (inactive) and 87.1 µM (inactive) | GI50 [28]: 79.4 µM (inactive) | GI50 [29]: > 100 µM (inactive) | GI50 [30]: 57.3 µM (inactive) | GI50 [31]: > 100 µM (inactive) | GI50 [32]: 55.1 µM (inactive) | GI50 [33]: > 100 µM (inactive) | GI50 [34]: 58.1 µM (inactive) | GI50 [35]: > 100 µM (inactive) | GI50 [36]: > 100 µM (inactive) | GI50 [37]: > 100 µM (inactive) | GI50 [38]: > 100 µM (inactive) | GI50 [39]: > 100 µM (inactive)

CCOC(=O)c1nc2ccc(C(F)(F)F)cc2nc1Oc1ccc(C(=O)OC)cc1
GI50 [40]: 66.1 µM (inactive) | GI50 [1]: > 100 µM (inactive) | GI50 [3]: > 100 µM (inactive) | GI50 [4]: 39.1 µM (inactive) | GI50 [5]: > 100 µM (inactive) | GI50 [41]: > 100 µM (inactive) | GI50 [42]: > 100 µM (inactive) | GI50 [6]: 55.7 µM (inactive) | GI50 [7]: > 100 µM (inactive) | GI50 [43]: > 100 µM (inactive) | GI50 [44]: > 100 µM (inactive) | GI50 [8]: > 100 µM | GI50 [9]: > 100 µM (inactive) | GI50 [10]: 22.5 µM (inactive) | GI50 [11]: 43.2 µM (inactive) | GI50 [45]: 81.7 µM (inactive) | GI50 [12]: 33.2 µM (inactive) | GI50 [13]: 59.4 µM (inactive) | GI50 [46]: > 100 µM (inactive) | GI50 [47]: 56.4 µM (inactive) | GI50 [48]: > 100 µM (inactive) | GI50 [14]: 57.1 µM (inactive) | GI50 [15]: 43.1 µM (inactive) | GI50 [49]: 80.7 µM (inactive) | GI50 [16]: 71.1 µM (inactive) | GI50 [50]: > 100 µM (inactive) | GI50 [18]: 45.5 µM (inactive) | GI50 [19]: 97.5 µM (inactive) | GI50 [20]: 54.5 µM (inactive) | GI50 [21]: > 100 µM (inactive) | GI50 [22]: 98.4 µM (inactive) | GI50 [24]: > 100 µM (inactive) | GI50 [51]: 32.5 µM (inactive) | GI50 [52]: > 100 µM (inactive) | GI50 [53]: 64.6 µM (inactive) | GI50 [25]: 76.4 µM (inactive) | GI50 [26]: 54.8 µM (inactive) | GI50 [27]: 77.8 µM (inactive) | GI50 [28]: 86.1 µM (inactive) | GI50 [29]: 32.1 µM (inactive) | GI50 [30]: 43.1 µM (inactive) | GI50 [31]: > 100 µM (inactive) | GI50 [33]: 46.8 µM (inactive) | GI50 [54]: 50.4 µM (inactive) | GI50 [55]: > 100 µM (inactive) | GI50 [34]: > 100 µM (inactive) | GI50 [35]: > 100 µM (inactive) | GI50 [36]: 45.8 µM (inactive) | GI50 [56]: 36.1 µM (inactive) | GI50 [37]: > 100 µM (inactive) | GI50 [38]: 59.4 µM (inactive) | GI50 [39]: > 100 µM (inactive)

COc1ccc(-c2c3c(n(C4OC(COC(C)=O)C(OC(C)=O)C(OC(C)=O)C4OC(C)=O)c(=S)c2C#N)CC(C)(C)CC3=O)cc1 (centres undefined)
GI50 [2]: 65.5 µM (inactive) | GI50 [4]: 62.1 µM (inactive) and 32.1 µM (inactive) | GI50 [5]: 59.2 µM (inactive) | GI50 [42]: > 100 µM (inactive) and 50.4 µM (inactive) | GI50 [7]: 26.6 µM (inactive) | GI50 [43]: 47.6 µM (inactive) and 61.1 µM (inactive) | GI50 [10]: > 100 µM (inactive) | GI50 [45]: 33.1 µM (inactive) and 58.2 µM (inactive) | GI50 [12]: 40.4 µM (inactive) and 36.2 µM (inactive) | GI50 [13]: > 100 µM (inactive) and 74.5 µM (inactive) | GI50 [47]: 74.8 µM (inactive) | GI50 [48]: 27.5 µM (inactive) and 29.3 µM (inactive) | GI50 [15]: 57.3 µM (inactive) and 28.8 µM (inactive) | GI50 [49]: 37.9 µM (inactive) and 35.6 µM (inactive) | GI50 [17]: 33 µM (inactive) and 65.8 µM (inactive) | GI50 [50]: 20.7 µM (inactive) and 27.8 µM (inactive) | GI50 [57]: > 100 µM (inactive) and 56.2 µM (inactive) | GI50 [18]: 55.5 µM (inactive) and 44.8 µM (inactive) | GI50 [20]: > 100 µM (inactive) and 61.4 µM (inactive) | GI50 [58]: 43.5 µM (inactive) and 22.6 µM (inactive) | GI50 [23]: 61 µM (inactive) | GI50 [51]: 59.6 µM (inactive) and 34.4 µM (inactive) | GI50 [52]: 32.6 µM (inactive) and 26.5 µM (inactive) | GI50 [26]: 78 µM (inactive) | GI50 [27]: 35.2 µM (inactive) and 22.8 µM (inactive) | GI50 [31]: 96.2 µM (inactive) | GI50 [32]: > 100 µM (inactive) and 55.3 µM (inactive) | GI50 [33]: 97.3 µM (inactive) | GI50 [55]: 24.9 µM (inactive) and 37.3 µM (inactive) | GI50 [34]: 37.1 µM (inactive) | GI50 [35]: 40.9 µM (inactive) and 64.1 µM (inactive) | GI50 [38]: 30.3 µM (inactive) and 33 µM (inactive) | GI50 [39]: > 100 µM (inactive) and 55.3 µM (inactive)

Source: ChEMBL document CHEMBL1201862, “PubChem BioAssay data set” (2004)
